We go through 39 molecules from patent US8329675B2, “Inhibitors of fatty acid amide hydrolase” (Infinity Pharmaceuticals, Inc., priority 2006, dated 2012).

This assay concerns the target T1, human FAAH (Homo sapiens, UniProt O00519).
T1 construct: host or cells: COS-7 cells, transient transfection; 13,000 g membrane fraction solubilised in 1% Triton X-100
T1 sequence (O00519 1-579): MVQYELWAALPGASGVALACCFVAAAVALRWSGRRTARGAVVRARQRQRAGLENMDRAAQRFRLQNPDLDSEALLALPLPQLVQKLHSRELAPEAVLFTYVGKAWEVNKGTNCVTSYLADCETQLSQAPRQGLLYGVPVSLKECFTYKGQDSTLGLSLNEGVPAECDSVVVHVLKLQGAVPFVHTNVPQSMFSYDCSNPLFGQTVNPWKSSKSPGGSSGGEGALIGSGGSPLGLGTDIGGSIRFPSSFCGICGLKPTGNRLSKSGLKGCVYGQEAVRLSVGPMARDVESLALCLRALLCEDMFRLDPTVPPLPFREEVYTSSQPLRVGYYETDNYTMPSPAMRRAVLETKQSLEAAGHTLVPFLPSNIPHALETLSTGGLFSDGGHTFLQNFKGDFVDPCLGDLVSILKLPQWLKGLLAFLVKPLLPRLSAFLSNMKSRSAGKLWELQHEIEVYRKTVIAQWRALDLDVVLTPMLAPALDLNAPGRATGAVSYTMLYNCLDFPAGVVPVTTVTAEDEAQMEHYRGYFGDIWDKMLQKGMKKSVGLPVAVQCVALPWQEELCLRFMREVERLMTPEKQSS
The experiment in a line: Human FAAH biochemical inhibition assay (AMC arachidonoyl amide fluorescence). The conditions noted are these: Table 2, human FAAH (no asterisk); read-out: Activity (Ki). The essentials: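 Solubilized membrane fraction from COS-7 cells transfected with human FAAH, used at a final 0.05 mg/ml in 50 mM Hepes pH 7.5, 1 mM EDTA, 0.2% Triton X-100. Inhibitor pre-incubated 30 min at room temperature; 20 uM final AMC arachidonoyl amide added, reaction run 4 h at room temperature, fluorescence read.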
For orientation: Ki means the equilibrium dissociation constant of an inhibitor or competing ligand from its target. Consider `O=C(c1ccc(B(O)O)cc1)N1CCCCC1` [II-164], for which the inhibition constant (Ki) was in the range of 10 to 100 nM.

Consider `OB(O)c1ccc(OCCCCc2ccccc2)cc1` [II-165], for which the Ki is 10 to 100 nM.

For the molecule `CC1(C)OB(c2ccc(OCCCCc3ccccc3)cc2)OC1(C)C` [II-166], the inhibition constant (Ki) was in the range of 10 to 100 nM.

With `OB(O)c1ccc(OCCc2ccccc2)cc1` [II-167], the inhibitory constant (Ki) is less than 10 nM.

With `CC1(C)OB(c2ccc(OCCc3ccccc3)cc2)OC1(C)C` [II-168], the Ki fell in the range of 10 to 100 nM.

For `OB(O)c1ccc(OCCCc2ccccc2)cc1` [II-169], the inhibition constant Ki is less than 10 nM.

For the molecule `CC1(C)OB(c2ccc(OCCCc3ccccc3)cc2)OC1(C)C` [II-170], the inhibitory constant (Ki) lay within 10 to 100 nM.

With `C[C@@H](NC(=O)c1ccc(B(O)O)cc1)c1ccccc1` [II-171], the Ki lay in the range of 10 to 100 nM.

Turning to `C[C@H](NC(=O)c1ccc(B(O)O)cc1)c1ccccc1` [II-172], the Ki lay in the range of 10 to 100 nM.

As to `CN(C)c1cc(Oc2ccc(B(O)O)cc2)cc(Oc2cccc3ccccc23)c1` [II-173], the Ki is more than 1000 nM.

Turning to `CC1(C)OB(c2ccc(OCc3cncs3)cc2F)OC1(C)C` [II-174], the inhibitory constant (Ki) was less than 10 nM.

`OB(O)c1ccc(OCc2ccccn2)cc1F` [II-175]: the inhibition constant (Ki) is more than 1000 nM.

With `CC1(C)OB(c2ccc(OCc3ccccn3)cc2F)OC1(C)C` [II-176], the inhibition constant Ki is less than 10 nM.

As to `OB(O)c1ccc(OCc2ccncc2)cc1F` [II-177], the inhibitory constant (Ki) lay within 10 to 100 nM.

In the case of `CC1(C)OB(c2ccc(CN(Cc3ccccc3)Cc3ccccc3)cc2)OC1(C)C` [II-178], the inhibition constant (Ki) was more than 1000 nM.

With `CC1(C)OB(c2ccc(OCc3ccncc3)cc2F)OC1(C)C` [II-179], the Ki is 10 to 100 nM.

Consider `CN(C)c1cc(Oc2ccc(B(O)O)cc2)cc(Oc2cccc(F)c2)c1` [II-180], for which the Ki was more than 1000 nM.

As for `CN(C)c1cc(Oc2ccc(Cl)cc2)cc(Oc2ccc(B(O)O)cc2)c1` [II-181], the Ki lay in the range of 10 to 1000 nM.

With `CN(C)c1ccc(/N=N/c2ccc(B(O)O)cc2)cc1` [II-182], the Ki lay within 10 to 100 nM.

For the molecule `COC(=O)c1cc(Oc2cccc(F)c2)ccc1B(O)O` [II-183], the Ki fell in the range of 10 to 100 nM.

On to `c1ccc(-c2ccc(B3CCCO3)cc2)cc1` [II-184], for which the Ki was in the range of 10 to 100 nM.

Consider `CN(C)c1ccc(/N=N/c2ccc(B3OC(C)(C)C(C)(C)O3)cc2)cc1` [II-185], for which the Ki fell in the range of 10 to 1000 nM.

As to `c1ccc(B2CCCO2)cc1` [II-186], the inhibition constant Ki is more than 1000 nM.

For `Cc1cc(NCc2ccc(B3OC(C)(C)C(C)(C)O3)cc2)ccc1F` [II-187], the Ki lay within 10 to 100 nM.

`Cc1cc(CNc2ccc(B3OC(C)(C)C(C)(C)O3)cc2)ccc1F` [II-188]: the inhibitory constant (Ki) was more than 1000 nM.

Turning to `OB(O)c1ccc(/C=C\c2ccccc2)cc1` [II-189], the Ki is more than 1000 nM.

On to `OB(O)c1ccc(Oc2cccc(Oc3cccc4ccccc34)c2)cc1` [II-190], for which the Ki was in the range of 10 to 100 nM.

On to `OB(O)c1ccc(Oc2cccc(Oc3ccc(Cl)cc3)c2)cc1` [II-191], for which the Ki was less than 10 nM.

Turning to `COc1ccc(Oc2cc(Oc3ccc(B(O)O)cc3)cc(N(C)C)c2)cc1` [II-192], the Ki fell in the range of 10 to 100 nM.

Take `COc1ccc(Oc2cccc(Oc3ccc(B(O)O)cc3)c2)cc1` [II-193]: the Ki is less than 10 nM.

In the case of `OB(O)c1ccc(Oc2cccc(F)c2)c(F)c1F` [II-194], the Ki is less than 10 nM.

For `OB(O)c1c(F)cc(Oc2cccc(F)c2)cc1F` [II-195], the Ki is less than 10 nM.

As to `OB(O)c1ccc(Oc2cccc(N3CCCCC3)c2)cc1F` [II-196], the Ki was more than 1000 nM.

As to `OB(O)c1ccc(Oc2cccc(N3CCCC3)c2)cc1F` [II-197], the inhibitory constant (Ki) fell in the range of 10 to 100 nM.

For `OB(O)c1cc(F)c(Oc2cccc(F)c2)c(F)c1` [II-198], the inhibitory constant (Ki) was less than 10 nM.

In the case of `Cc1cc(CSc2ccc(B(O)O)c(F)c2)ccc1F` [II-199], the inhibition constant (Ki) was less than 10 nM.

For the molecule `CNc1cccc(Oc2ccc(B(O)O)c(F)c2)c1` [II-200], the Ki was less than 10 nM.

For `CN(C)c1cccc(Oc2ccc(B(O)O)c(F)c2)c1` [II-201], the inhibition constant Ki was in the range of 10 to 100 nM.

In the case of `OB(O)c1ccc(Oc2cccc(F)c2)cc1C(F)(F)F` [II-202], the Ki lay within 10 to 100 nM.
